How the values were obtained:
[1] = tested on: gout arthritis induced by intra-articular uric acid; assay: Pain Induced Functional Impairment model in the Rat (PIFIR), analgesic activity; type: in vivo, male Wistar rats; details: oral, single doses, rats with gout arthritis, FIG. 1
Description: The experiments were carried out using male Wistar rats having a body weight between 180 and 200 g. […] The number of test animals was taken to the minimal (6 animals for each experimental aspect). Animals were kept in a room with light/darkness cycles. Rats were fastened twelve hours prior the beginning of experiments, leaving only free access to water. All the experiments were run during the light phase, using the animals only once.
The evaluation of analgesic effects was carried out using the Pain Induced Functional Impairment model in the Rat (PIFIR) model. Animals were anesthetized in a glass desiccator saturated with ether vapors. Gout arthritis was induced, upon application of a intra-articular injection of 0.05 ml of uric acid suspended in mineral oil, in the right-side hind leg, exactly in the femoral-tibio-patellar joint. […] Variable measured was contact time of each hind leg of every rat in the cylinder.
Rats were administered with each of the compounds orally. […] This period of time (2.5 hours after administration of uric acid) was considered as time “0”, in order to administer in this point of time the antinociceptive or analgesic treatment and the temporary course of each treatment were determined during the following 4 continuous hours. […]
Data are expressed as Percentage of Functionality Index (FI %). […]

[2] = tested on: Interleukin-1 beta production in human monocytes; details: human monocytes in vitro (Berdah et al., 1993); cited from earlier work
[3] = tested on: cyclooxygenase (COX) from kidney or platelet; details: from kidney or platelet (LaVilla et al., 1989); cited from earlier work
[4] = clinical trials, administered to 2 years; cited from earlier work

Row | SMILES | TC efficacy (analgesic effect, FI % temporal course) [1] | Interleukin-1 beta production [2] | activity of cyclooxygenase (COX) [3] | safety on long-term administration [4]
1 | CC(=O)Oc1cccc2c1C(=O)c1c(OC(C)=O)cc(C(=O)O)cc1C2=O [Diacereine, 1,8-diacetoxy-3-carboxy-anthraquinone] | unable to generate analgesic effects | inhibit | does not disrupt | without having safety problems
2 | O=C(O)c1cc(O)c2c(c1)C(=O)c1cccc(O)c1C2=O [reine, Reine] | – | inhibit | – | –

Reference: patent US20060074079A1, “Solid pharmaceutical formulations comprising Diacereine and Meloxicam” (Leopoldo Espinosa Abdala, priority 2004, published 2006)
